The source of these data is ChEMBL document CHEMBL1127125, “Synthesis and testing of substituted phenylthioribose analogs against Klebsiella pneumoniae” (Bioorg Med Chem Lett, 1993).

The term IC50 denotes the concentration at which inhibition is half-maximal. High values mean a need for much substance, low ones inhibition by little substance. Usually MIC stands for the lowest concentration that inhibits growth of the organism. Higher therefore signals a need for much substance.

Assay [1] has as its system Klebsiella pneumoniae. Briefly: Concentration required to inhibit the growth of a clinical strain of Klebsiella pneumoniae by 50%. Format: functional, organism-based.
Assay [2] deals with Klebsiella pneumoniae. Briefly: Compound was tested for its ability to inhibit the growth of a clinical strain of Klebsiella pneumoniae. The assay is classed as functional, organism-based.
Assay [3] is described as follows: Compound was tested for its ability to inhibit the growth of a clinical strain Ochromonas malhamensis. Format: functional.
The subject of assay [4] is Plasmodium falciparum. The experiment in a line: Inhibition of Plasmodium falciparum. The assay is classed as functional, organism-based.
Assay [5] relates to Klebsiella pneumoniae. The experiment in a line: Minimum inhibitory concentration of compound for its inhibitory activity against Klebsiella pneumoniae growth at 2.4 ug/mL. Format: functional.
Assay [6] concerns Klebsiella pneumoniae. The experiment in a line: Compound was tested for its ability to inhibit the growth of a clinical strain of Klebsiella pneumoniae at 0.01 ng/mL. The assay is classed as functional, organism-based.
Assay [7] has as its system Klebsiella pneumoniae. The experiment in a line: Minimum inhibitory concentration of compound for its inhibitory activity against Klebsiella pneumoniae growth at 0.002 ug/mL. The assay is classed as functional.
For assay [8], the system named is Klebsiella pneumoniae. The experiment in a line: Minimum inhibitory concentration of compound for its inhibitory activity against Klebsiella pneumoniae growth at 20.7 ug/mL. The assay is classed as functional.
Assay [9] deals with Klebsiella pneumoniae. Briefly: Minimum inhibitory concentration of compound for its inhibitory activity against Klebsiella pneumoniae growth at 2.60 ug/mL. The assay is classed as functional.

Converted amounts (≈) assume the structure as drawn.

In assay [1], `OC1O[C@H](CSc2ccc(C(F)(F)F)cc2)[C@@H](O)[C@H]1O` (stereo partly specified) came in with a 50% inhibitory concentration (IC50) of 0.04 µM.

`CCSC[C@H]1OC(O)[C@H](O)[C@@H]1O` (stereo partly specified): the IC50 in [2] was around 15000 µM; in assay [3], around 75 µM; in assay [4], around 300 µM. Take `OC1O[C@H](CSc2ccc(Br)cc2)[C@@H](O)[C@H]1O` (stereo partly specified): inhibition of growth in assay [5] (MIC) required 7.5 µM (≈ 2.41 µg/mL). In assay [6], this compound yielded an IC50 of 375 nM.

Regarding `OC1O[C@H](CSc2ccc(I)cc2)[C@@H](O)[C@H]1O` (stereo partly specified), 0.005 µM (≈ 0.00184 µg/mL) was the least that counted as inhibitory in assay [7] (MIC).

Turning to `OC1O[C@H](CSc2ccc(Cl)cc2)[C@@H](O)[C@H]1O` (stereo partly specified), the MIC in assay [8] was found to be 75 µM (≈ 20.8 µg/mL). The IC50 in assay [6] amounted to 500 nM.

As for `OC1O[C@H](CSc2ccc(F)cc2)[C@@H](O)[C@H]1O` (stereo partly specified), 10 µM (≈ 2.6 µg/mL) was the least that counted as inhibitory in [9] (MIC). Half-maximal inhibition in assay [6] (IC50) was put at 0.05 nM.
